Experimental data from patent US5716945A, “Vitamin D analogues” (Leo Pharmaceutical Products Ltd. A/S (L.o slashed.vens …, priority 1993, dated 1998).
One block for each compound: values may come before it.

Assays:
[1] = test system: U937 human histiocytic leukemia cells; test: antiproliferative effect in U937 human histiocytic leukemia cells relative to 1α,25(OH)2 D3; assay type: cell-based; conditions: number greater than 1 = higher antiproliferative activity
Experimental: ^a This test determines the antiproliferative effect in U937 human
histiocytic leukemia cells of the compound relative to
1α,25(OH)2 D3. A number greater than 1 indicates a higher
antiproliferative activity of the compound in question when compared to
1α,25(OH)2 D3. The test was performed exactly as
described: L. Binderup and E. Bramm, Biochem. Pharmacol., 37, (1988)

calcium metabolism = test: calciuric effect in rats relative to 1α,25(OH)2 D3 (calcium metabolism); assay type: in vivo; conditions: number smaller than 1 = less change in calcium excretion
Source text: ^b This test determines the calciuric effect in rats of the compound
relative to 1α,25(OH)2 D3. A number smaller than 1
indicates less change in calcium excretion of the compound in question
when compared to 1α,25(OH)2 D3. The test was, as above,
performed exactly as described: L. Binderup and E. Bramm, Biochem.

[2] = acid stability: approximate half life in conc. ^2 HCl/^2 H2 O in C^2 H3 CN determined by ^1 H NMR; assay type: physicochemical; conditions: dcl/d2o in cd3cn; 10 μl conc. ^2 HCl/^2 H2 O in C^2 H3 CN (0.6 ml), 25° C., ^1 H NMR at 500 MHz
Experimental: | ^c In this test, the compound was treated with a mixture of 10 μl | conc. ^2 HCl/^2 H2 O in C^2 H3 CN (0.6 ml) at | 25° C. and the approximate half life was determined by ^1 H NM | at 500 MHz.

cells = conditions: Abe, E. et al. (1981); cited from earlier work
interleukins = conditions: Muller, K. et al. (1988); cited from earlier work
[3] = test system: sebaceous glands in the ears of male Syrian hamsters; conditions: topical application, Malloy, V. L. et al. (1989); cited from earlier work

SMILES: C=C1/C(=C\C=C2/CCC[C@]3(C)[C@@H]([C@H](C)CCCC(C)(C)O)CC[C@@H]23)C[C@@H](O)C[C@@H]1O [1,25(OH)2 D3, 1α,25-dihydroxy-vitamin D3]
- cell differentiation and proliferation (cells): able to stimulate the differentiation of cells and inhibit excessive cell proliferation
- effects and/or production of interleukins (interleukins): influences the effects and/or production of interleukins
- size of sebaceous glands [3]: reduces the size of sebaceous glands

SMILES: C=C1/C(=C\C=C2/CCC[C@]3(C)[C@@H]([C@H](C)/C=C/[C@@H](O)C4CC4)CC[C@@H]23)C[C@@H](O)C[C@@H]1O [Calcipotriol]
- U937, inhib. of prolifer. [1]: 1
- Calcium metabolism (calciuric effect) (calcium metabolism): 0.005

The next lines start with results.

- Calcium metabolism (calciuric effect) (calcium metabolism): 0.2
SMILES: C=C1/C(=C\C=C2/CCC[C@]3(C)[C@@H]([C@H](C)/C=C/C#CC(O)(CC)CC)CC[C@@H]23)C[C@@H](O)C[C@@H]1O [Compound 101, 1(S),3(R)-Dihydroxy-20(R)-(5-ethyl-5-hydroxy-hept-1(E)-en-3-yn-1-yl)-9,10-seco-pregna-5(Z),7(E),10(19)-triene]
- U937, inhib. of prolifer. [1]: 89

- Calcium metabolism (calciuric effect) (calcium metabolism): 0.4
- half-life [2]: < 5 min
SMILES: C=C1/C(=C\C=C2/CCC[C@]3(C)[C@@H]([C@H](C)/C=C/C=C/C(O)(CC)CC)CC[C@@H]23)C[C@@H](O)C[C@@H]1O [EB1089, 1(S),3(R)-Dihydroxy-20(R)-(5'-ethyl-5'-hydroxy-hepta-1' (E),3'(E)-dien-1'-yl)-9,10-secopregna-5(Z),7(E), 10(19)-triene]
- U937, inhib. of prolifer. [1]: 68

- Calcium metabolism (calciuric effect) (calcium metabolism): 0.015
- half-life [2]: 15 to 30 min
SMILES: C=C1/C(=C\C=C2/CCC[C@]3(C)[C@@H]([C@@H](C)/C=C/C#CC(O)(CC)CC)CC[C@@H]23)C[C@@H](O)C[C@@H]1O [Compound 102, 1(S),3(R)-Dihydroxy-20(S)-(5-ethyl-5-hydroxy-hept-1(E)-en-3-yn-1-yl)-9,10-seco-pregna-5(Z),7(E),10(19)-triene]
- U937, inhib. of prolifer. [1]: 1.1
